These results are taken from PubChem BioAssay (NCI).

What all share (experiment): inhibition of tumour cell growth, NCI panel, 48 h
For assay [1], the system named is EKVX NSCLC.
For assay [2], the system named is HCC-2998 colon.
Assay [3] deals with MOLT-4 leukemia.
The subject of assay [4] is NCI-H226 lung.
Assay [5] has as its system SF-268 CNS.
The test system of assay [6] is SF-295 CNS.
Assay [7] has as its system U251 CNS.
Assay [8] relates to UACC-257 melanoma.
The subject of assay [9] is UACC-62 melanoma.
Assay [10] concerns SK-MEL-5 melanoma.

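Results reflect a 48-hour exposure of cells in 96-well plates to compound at five concentrations. Here, GI50 denotes the concentration required for 50% inhibition of growth. TGI denotes the concentration required for complete inhibition of growth.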 Where only a bound is given, the exact number is not on record here.

For the compound `O=C(O)c1ccccc1/C=C1/Nc2ccccc2C1=O`, the TGI in assay [1], in assay [2], in assay [3], in [4], in assay [5] and in [6] was > 100 µM in each case. Moreover, the TGI in [7], in assay [8] and in [9] was > 100 µM in each case.

For `Cc1cccc2c1C(=O)OC2(c1cccc2ccccc12)c1cccc2ccccc12`, the TGI in assay [1], in [2], in assay [3], in [4], in assay [5] and in [6] was > 100 µM each time. In addition, the TGI in assay [10], in assay [7], in [8] and in assay [9] was > 100 µM each time.

For the compound `C/C(=C\COc1ccc2ccc(=O)oc2c1)CCC(=O)C(C)(C)O`, the TGI in assay [1] is > 100 µM; in [2] it was 38.4 µM; in assay [3], 67.5 µM; in assay [4], 69.7 µM; in assay [5], > 100 µM; in [6], > 100 µM. Further, the TGI is 30.2 µM in [10], 47.4 µM in assay [7], > 100 µM in assay [8] and 37.1 µM in [9].

Take `CC1CCCc2c(CC3CC(=O)NC(=O)C3)nc(N)nc21` (centres undefined): the TGI in assay [1], in [2], in [3], in assay [4], in assay [5] and in assay [6] was > 100 µM each time. Further, the TGI in [10], in assay [7], in assay [8] and in assay [9] was > 100 µM each time.

`COc1ccc2c(c1)/C(=N/OC(C)=O)c1c-2c(Nc2ccc(/C(C)=N/OC(C)=O)cc2)nc2ccccc12`: the GI50 in [1] is 82.1 µM; in assay [2] it was 26 µM; in [3], 26.1 µM; in [4], > 100 µM; in [5] it was 37.7 µM; in assay [6], > 100 µM. The GI50 in assay [10] is 79.4 µM; in assay [7] it was 96.8 µM; in assay [8] it was > 100 µM; in assay [9], 25.5 µM. For the same compound, the TGI in assay [1] was > 100 µM; in [2] it was 59 µM; in assay [3], 72.8 µM; in assay [4] it was > 100 µM; in [5] it was > 100 µM; in assay [6] it was > 100 µM. The TGI in assay [10] was > 100 µM; in assay [7], > 100 µM; in [8], > 100 µM; in assay [9], 63.8 µM.

As to `BrCC[N+]12CCCN1CCC2`, the TGI in assay [1] was 38 µM; in [2] it was 54.3 µM; in [3], 12.9 µM; in assay [4] it was 60.8 µM; in assay [5], 58.9 µM; in assay [6], > 100 µM. Moreover, the TGI in assay [10] is 34.3 µM; in [7], 32.7 µM; in assay [8], 37.2 µM; in assay [9], 20.5 µM.

Take `CCC[CH2][Sn]1([CH2]CCC)[O]N=Cc2ccccc2[O]1`: the GI50 in assay [1] was 1.11 µM; in assay [2], 1.32 µM; in assay [3] it was 0.335 µM; in [4] it was 1.93 µM; in assay [6] it was 0.93 µM; in [10] it was 1.46 µM. In addition, the GI50 in assay [7] is 0.387 µM; in assay [8], 1.31 µM; in [9], 0.413 µM. Also, the TGI in assay [1] worked out at 2.39 µM; in [2] it was 2.83 µM; in assay [3] it was 1.9 µM; in assay [4], 3.49 µM; in [6] it was 2.13 µM; in assay [10], 2.83 µM. The TGI stood at 1.41 µM in assay [7], 2.74 µM in assay [8] and 1.7 µM in assay [9].

Turning to `O=C1c2ccccc2-c2c1c1ccccc1c(=O)n2CCCNCCO`, the GI50 in [1] was 2.38 µM; in assay [2] it was 1.28 µM; in assay [3] it was 0.0879 µM; in assay [4], 1.45 µM; in [5], 0.796 µM; in [6] it was 0.568 µM. The GI50 in assay [10] is 0.198 µM; in [7], 0.302 µM; in assay [8], 1.25 µM; in [9], 0.304 µM. The TGI in [1] is 8.35 µM; in [2], 5.74 µM; in assay [3], 0.522 µM; in [4], 5.38 µM; in assay [5], 8.85 µM; in assay [6], 4.02 µM. Further, the TGI in assay [10] was 0.877 µM; in assay [7], 5.61 µM; in assay [8] it was 4.39 µM; in [9], 1.74 µM.

`C=C(C)[C@@H]1CC[C@@H]2C(=CC[C@]3(C)C([C@H](C)CC/C=C(/C)C(=O)O)CC[C@@]23C)[C@@]1(C)CCC(=O)O` (some centres undefined): the TGI in [1] is > 100 µM; in [2], 35.1 µM; in [4] it was 83.1 µM; in [5], > 100 µM; in assay [6] it was > 100 µM; in assay [10], 41.2 µM. Moreover, the TGI in [7] was 70 µM; in [8], 54.2 µM; in assay [9], 39.4 µM.

Turning to `CCc1cc2c(c3[nH]ccc13)[C@@H](C)C[C@H]2C`, the TGI worked out at 44.6 µM in assay [1]; 38.3 µM in assay [2]; 38.2 µM in [3]; 31.8 µM in [4]; 35.2 µM in assay [6]; 31.9 µM in [10]. For the same compound, the TGI amounted to 31.6 µM in assay [7], 39.9 µM in [8] and 32 µM in [9].

As to `CC(C)S(=O)(=O)ON1C(=O)c2ccc([N+](=O)[O-])cc2C1=O`, the TGI in [1], in assay [2], in [4], in assay [5], in assay [6] and in [10] was > 100 µM each time. Besides, the TGI in assay [7], in [8] and in assay [9] was > 100 µM throughout.
